From patent US8466202B2, “Anthracenedione compounds” (Sunten Phytotech Co., Ltd., priority 2006, dated 2013)
Values joined by “and” are separate entries in the source; they are usually repeats but may differ in a detail not shown here. Equal values may be shown once.

Legend:
healthy male S.D. rats = experiment: Feces production in rats over the 10-day period (Example 3); format: in vivo, rat; settings: for increase of the feces amount (wet weight): vs control of the same group; for Pellet count / Water content / Wet Weight: Sennosides 3.35 mg/kg; for increase of the feces amount (wet weight), average: average of Days 1, 5 and 10
Experimental: During this period, the body weights of the rats were weighed each day and recorded. Feces of each rat were studied three times during the period for any unusual observations. Specifically, the amounts of feces were weighed on Days 11, 15, 18, and 21. During observation, each rat was placed in a metabolic cage. Feces were collected every twenty-four hours. The number of collected feces pellets was counted, and the pellets' shapes and colors were evaluated. After weighing the moist feces, they were dried in an oven at 100° C. for twenty-four hours. The water content from the feces was calculated according to the following formula: Water content percentage=[(wet weight−dry weight)/wet weight]×100%. (I) The results are summarized in Table 2 below: The aforementioned STD05 and compounds were studied for the laxative activity. Healthy male S.D. rats (BioLASCO Taiwan Co. Ltd.) were divided into three groups (i.e., Groups 1-3) in this study. In Group I, 6 rats, as negative control, were given no treatment; 6 rats, as positive control, were given 3.35 mg/kg/day Sennosides (Through®, Chung Mei Pharmaceutical Co., Ltd; Active ingredient: Sennosides 20 mg, as sennoside A+B 12 mg, Lot. 012F 006); 6 rats were treated STD05 (8 mg/kg/day); 6 rats were treated with an extract fraction containing aloe-emodin, rhein, and emodin (“ARE”, 8 mg/kg/day); 6 rats were treated with Aloe-emodin (4 mg/kg/day); and 6 rats were treated with Rhein (4 mg/kg/day). In Group II, 6 rats, as negative control, were given no treatment; 6 rats, as positive control, were given 3.35 mg/kg/day Sennosides; 6 rats were treated STD05 (24 mg/kg/day); 6 rats were treated with an extract fraction containing ARE (24 mg/kg/day); 6 rats were treated with Chrysophanol (4 mg/kg/day); and 6 rats were treated with Emodin (4 mg/kg/day). In Group III, 6 rats, as negative control, were given no treatment; 6 rats were treated with Physcoin (4 mg/kg/day); and 6 rats were treated with a mixture of chrysophanol and physcion (8 mg/kg/day, “CP”). The experiments were carried out under controlled temperature, humidity, and lighting. Each rat was fed standard rat food and water ad libitum in housing that provided a 12-hour light/dark cycle. For statistical comparison, all of the rats were divided into six sets according to the body weights. The first part of the experiment studied the effect of the test substances on feces production. During the 10-day period, the body weights of the rats were weighed each day and recorded. The rat's feces was also studied three times in the manner described above during the 10-day period for any unusual observations. During the 10-day period, any rat that appeared dying was euthanized, dissected, and examined for any illness or injury. Any complications or illness were analyzed by H&E stains to determine the cause of death and to allow for dosage reconsiderations for future experiments. Summarized in Table 4 below are the effects of the compounds, mixtures, or extracts on the rat body weights. During the period, feces produced by the rats were studied days 1, 5, and 10 in the same manner described above. […] In the 10-day period, the rats administered with STD05 produced more feces (wet weight) that the rats in the control group by about 32%. In addition, the pellet counts for the rats administered with STD05 were greater than those for the control rats by about 20%. Furthermore, STD05 increased the water content in feces by about 18%. The same experiments were conducted on rats administered with physcion, aloe-emodin, chrysophanol, rhein, emodin, CP, and ARE.

[1] = Body weight of rats over the 10-day period (Example 3); format: in vivo, rat; parameters: Body weight Difference: unit not given here; settings: Sennosides 3.35 mg/kg/day; for Body weight Difference, Mean / Body weight End Day 10, Mean: group mean; for Body weight Difference, Mean / Body weight Difference: Day 10 minus Day 1; for Body weight Difference / Body weight End Day 10: individual rats
Experimental: The aforementioned STD05 and compounds were studied for the laxative activity. Healthy male S.D. rats (BioLASCO Taiwan Co. Ltd.) were divided into three groups (i.e., Groups 1-3) in this study. In Group I, 6 rats, as negative control, were given no treatment; 6 rats, as positive control, were given 3.35 mg/kg/day Sennosides (Through®, Chung Mei Pharmaceutical Co., Ltd; Active ingredient: Sennosides 20 mg, as sennoside A+B 12 mg, Lot. 012F 006); 6 rats were treated STD05 (8 mg/kg/day); 6 rats were treated with an extract fraction containing aloe-emodin, rhein, and emodin (“ARE”, 8 mg/kg/day); 6 rats were treated with Aloe-emodin (4 mg/kg/day); and 6 rats were treated with Rhein (4 mg/kg/day). In Group II, 6 rats, as negative control, were given no treatment; 6 rats, as positive control, were given 3.35 mg/kg/day Sennosides; 6 rats were treated STD05 (24 mg/kg/day); 6 rats were treated with an extract fraction containing ARE (24 mg/kg/day); 6 rats were treated with Chrysophanol (4 mg/kg/day); and 6 rats were treated with Emodin (4 mg/kg/day). In Group III, 6 rats, as negative control, were given no treatment; 6 rats were treated with Physcoin (4 mg/kg/day); and 6 rats were treated with a mixture of chrysophanol and physcion (8 mg/kg/day, “CP”). The experiments were carried out under controlled temperature, humidity, and lighting. Each rat was fed standard rat food and water ad libitum in housing that provided a 12-hour light/dark cycle. For statistical comparison, all of the rats were divided into six sets according to the body weights. The first part of the experiment studied the effect of the test substances on feces production. During the 10-day period, the body weights of the rats were weighed each day and recorded. The rat's feces was also studied three times in the manner described above during the 10-day period for any unusual observations. During the 10-day period, any rat that appeared dying was euthanized, dissected, and examined for any illness or injury. Any complications or illness were analyzed by H&E stains to determine the cause of death and to allow for dosage reconsiderations for future experiments. Summarized in Table 4 below are the effects of the compounds, mixtures, or extracts on the rat body weights.

[2] = Group I, Day 1, STD05 8 mg/kg, ARE 8 mg/kg, Aloe-emodin 4 mg/kg, Rhein 4 mg/kg
[3] = Group I, Day 5, STD05 8 mg/kg, ARE 8 mg/kg, Aloe-emodin 4 mg/kg, Rhein 4 mg/kg
[4] = Group I, Day 10, STD05 8 mg/kg, ARE 8 mg/kg, Aloe-emodin 4 mg/kg, Rhein 4 mg/kg
[5] = Group I, STD05 8 mg/kg, ARE 8 mg/kg, Aloe-emodin 4 mg/kg, Rhein 4 mg/kg
[6] = Group II, Day 1, STD05 24 mg/kg, ARE 24 mg/kg, Chrysophanol 4 mg/kg, Emodin 4 mg/kg
[7] = Group II, Day 5, STD05 24 mg/kg, ARE 24 mg/kg, Chrysophanol 4 mg/kg, Emodin 4 mg/kg
[8] = Group II, Day 10, STD05 24 mg/kg, ARE 24 mg/kg, Chrysophanol 4 mg/kg, Emodin 4 mg/kg
[9] = Group II, STD05 24 mg/kg, ARE 24 mg/kg, Chrysophanol 4 mg/kg, Emodin 4 mg/kg

Structure (SMILES)	increase of the feces amount (wet weight) (healthy male S.D. rats; Day 1) [%]	increase of the feces amount (wet weight) (healthy male S.D. rats; Day 5) [%]	increase of the feces amount (wet weight) (healthy male S.D. rats; Day 10) [%]	Pellet count (healthy male S.D. rats; [2])	Water content (healthy male S.D. rats; [2]) [%]	Wet Weight (healthy male S.D. rats; [2]) [g]	Pellet count (healthy male S.D. rats; [3])	Water content (healthy male S.D. rats; [3]) [%]	Wet Weight (healthy male S.D. rats; [3]) [g]	Pellet count (healthy male S.D. rats; [4])	Water content (healthy male S.D. rats; [4]) [%]	Wet Weight (healthy male S.D. rats; [4]) [g]	increase of the feces amount (wet weight), average (healthy male S.D. rats) [%]	Body weight Difference, Mean [1, 5] [g]	Body weight End Day 10, Mean [1, 5] [g]	Body weight Difference [1, 5]	Body weight End Day 10 [1, 5]	also measured
O=C(O)c1cc(O)c2c(c1)C(=O)c1cccc(O)c1C2=O [Rhein]	31	−9	−1	102	42.58	17.57	89	44.55	16.88	119	46.53	23.52	7	51	331	55 (4×) and 50 and 35	330 (2×) and 340 (2×) and 310 and 335	–
O=C1c2cccc(O)c2C(=O)c2c(O)cc(CO)cc21 [Aloe-emodin]	27	9	20	98	42.48	17.00	104	41.98	20.21	125	50.48	28.86	19	58	330	45 and 50 (2×) and 40 (2×) and 55	315 (2×) and 335 and 345 (2×) and 325	–
Cc1cc(O)c2c(c1)C(=O)c1cc(O)cc(O)c1C2=O [Emodin]	−30	12	4	–	–	–	–	–	–	–	–	–	−5	–	–	–	–	Pellet count (healthy male S.D. rats; [6]): 90; Water content (healthy male S.D. rats; [6]): 42.38%; Wet Weight (healthy male S.D. rats; [6]): 16.86 g; Pellet count (healthy male S.D. rats; [7]): 112; Water content (healthy male S.D. rats; [7]): 51.00%; Wet Weight (healthy male S.D. rats; [7]): 25.51 g; Pellet count (healthy male S.D. rats; [8]): 106; Water content (healthy male S.D. rats; [8]): 53.64%; Wet Weight (healthy male S.D. rats; [8]): 26.21 g; Body weight Difference, Mean [1, 9]: 32 g; Body weight End Day 10, Mean [1, 9]: 379 g; Body weight Difference [1, 9]: 30 and 35 (3×) and 45 and 10; Body weight End Day 10 ([1]; Group II, STD05 24 mg/kg, ARE 24 mg/kg, Chrysophanol 4 mg/kg, Emodin 4 mg/kg, in g (unit assumed)): 370 and 380 and 405 and 340 and 385 and 395
